Assay results as given in ChEMBL document CHEMBL1201862, “PubChem BioAssay data set” (2004).
Activity calls are given as the source filed them.

Tests used:
[1] = target: 5-hydroxytryptamine receptor 2A (Mus musculus, UniProt P35363); assay type: functional, cell-based;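 note: CHO-K1 cells with tagged receptor and beta-arrestin; agonist potency measured as compound-induced activation of the receptor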
Mu-type opioid receptor = Mu-type opioid receptor (Homo sapiens, UniProt P35372); assay type: functional, cell-based;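 note: U2OS cells with beta-arrestin recruitment to OPRM1 by beta-gal complementation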
[2] = target: Nuclear receptor subfamily 0 group B member 1 (Homo sapiens, UniProt P51843); assay type: functional, cell-based;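 note: HEK293T cells transfected with SF-1 and DAX-1 plus StAR promoter luciferase reporter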
cells [3] = assay type: functional, cell-based
fMet-Leu-Phe receptor = fMet-Leu-Phe receptor (Homo sapiens, UniProt P21462); experiment: FPR ligands, dose response (AID 519); assay type: functional
[4] = target: FAD-linked sulfhydryl oxidase ALR (Homo sapiens, UniProt P55789); experiment: inhibitors of human ALR sulfhydryl oxidase, dose response, biochemical, H2O2 detection, luminescence, cherry-pick (AID 493248)
[5] = target: Long-chain-fatty-acid--AMP ligase FadD28 (Mycobacterium tuberculosis, UniProt P9WQ59); experiment: Fluorescence polarization aasay to screen for inhibitors that compete for the binding of FadD28 to a bisubstrate Measured in Biochemical System Using Plate Reader - 2147-01_Inhibitor_Dose_CherryPick_Activity.; assay type: functional, Mycobacterium tuberculosis H37Rv
Aminopeptidase N = target: T1, Aminopeptidase N (Plasmodium falciparum FcB1/Columbia, UniProt O96935); experiment: P. falciparum M1AAP inhibitors, biochemical, fluorogenic H-Leu-NHMec substrate, 1536-well (AID 1445); design: species or system Plasmodium falciparum 3D7, 3D7
T1 sequence (O96935 whole entry): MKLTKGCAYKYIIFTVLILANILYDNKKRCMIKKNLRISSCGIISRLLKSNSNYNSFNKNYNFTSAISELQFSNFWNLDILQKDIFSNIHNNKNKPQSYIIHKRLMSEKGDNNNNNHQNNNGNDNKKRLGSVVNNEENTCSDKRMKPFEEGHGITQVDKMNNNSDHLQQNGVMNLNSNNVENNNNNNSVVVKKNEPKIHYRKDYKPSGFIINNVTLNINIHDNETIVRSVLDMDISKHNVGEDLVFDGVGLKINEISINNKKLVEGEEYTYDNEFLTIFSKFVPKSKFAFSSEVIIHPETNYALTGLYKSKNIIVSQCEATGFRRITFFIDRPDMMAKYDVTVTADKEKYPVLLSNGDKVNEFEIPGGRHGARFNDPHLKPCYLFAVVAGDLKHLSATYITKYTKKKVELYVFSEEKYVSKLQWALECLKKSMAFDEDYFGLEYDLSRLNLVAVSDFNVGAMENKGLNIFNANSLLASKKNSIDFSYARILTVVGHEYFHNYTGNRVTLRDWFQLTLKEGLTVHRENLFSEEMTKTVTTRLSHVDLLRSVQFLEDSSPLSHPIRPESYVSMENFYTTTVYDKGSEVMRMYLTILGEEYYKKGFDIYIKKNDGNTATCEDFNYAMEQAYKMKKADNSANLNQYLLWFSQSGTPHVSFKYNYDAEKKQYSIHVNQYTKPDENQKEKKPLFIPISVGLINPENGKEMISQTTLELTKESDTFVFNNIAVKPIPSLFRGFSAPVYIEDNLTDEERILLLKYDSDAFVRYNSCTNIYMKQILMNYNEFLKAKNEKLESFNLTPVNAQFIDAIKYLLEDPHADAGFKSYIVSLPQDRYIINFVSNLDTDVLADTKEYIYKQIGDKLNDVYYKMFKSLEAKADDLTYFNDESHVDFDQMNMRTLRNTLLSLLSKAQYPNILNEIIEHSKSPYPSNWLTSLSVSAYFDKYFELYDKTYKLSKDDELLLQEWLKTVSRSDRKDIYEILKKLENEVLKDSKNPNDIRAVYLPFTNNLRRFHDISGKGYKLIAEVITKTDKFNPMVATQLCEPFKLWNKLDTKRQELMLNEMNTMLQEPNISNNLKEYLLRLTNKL

[6] = target: Endoplasmic reticulum aminopeptidase 1 (Homo sapiens, UniProt Q9NZ08); experiment: ERAP1 aminopeptidase inhibitors, dose response, biochemical, cherry-pick, set 2, plate reader (AID 743314)
[7] = target: T2, Beta-2 adrenergic receptor (Homo sapiens, UniProt P07550); experiment: beta2AR agonists driving receptor internalization, dose response, cell-based, FAP fluorogen, flow cytometry, cherry pick 1 (AID 588763); assay type: functional
[8] = target: Fructose-bisphosphate aldolase (Mycobacterium tuberculosis, UniProt P9WQA3); experiment: Fluorescence-based biochemical high throughput dose response assay for inhibitors of the fructose-bisphosphate aldolase (FBA) of M. tuberculosis.; assay type: functional
[9] = target: T2, Beta-2 adrenergic receptor; experiment: Dose response for HTS for Beta-2AR agonists via FAP method from Powderset3.; assay type: functional
Major prion protein = Major prion protein (Homo sapiens, UniProt P04156); assay type: functional, cell-based
cells [10] = experiment: cells
Protein skinhead-1 = target: T3, Protein skinhead-1 (Caenorhabditis elegans, UniProt P34707); assay type: functional
T3 sequence (P34707 whole entry): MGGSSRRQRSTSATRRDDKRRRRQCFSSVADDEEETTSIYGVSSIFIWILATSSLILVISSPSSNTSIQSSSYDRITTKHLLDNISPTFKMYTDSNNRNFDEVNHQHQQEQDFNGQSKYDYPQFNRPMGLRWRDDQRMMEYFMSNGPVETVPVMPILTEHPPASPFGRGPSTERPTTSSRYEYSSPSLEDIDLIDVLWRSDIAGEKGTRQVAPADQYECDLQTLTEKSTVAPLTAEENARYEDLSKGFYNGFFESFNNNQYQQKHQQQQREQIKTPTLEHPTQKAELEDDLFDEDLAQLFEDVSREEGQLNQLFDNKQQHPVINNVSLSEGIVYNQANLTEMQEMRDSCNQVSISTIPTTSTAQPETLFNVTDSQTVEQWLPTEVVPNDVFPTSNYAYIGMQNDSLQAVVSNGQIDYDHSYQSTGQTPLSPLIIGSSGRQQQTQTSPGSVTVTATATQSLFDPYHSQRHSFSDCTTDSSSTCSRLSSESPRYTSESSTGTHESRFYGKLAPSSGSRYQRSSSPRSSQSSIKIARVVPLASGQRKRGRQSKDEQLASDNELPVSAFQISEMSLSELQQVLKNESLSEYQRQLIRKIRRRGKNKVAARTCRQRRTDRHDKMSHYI

[11] = target: Botulinum neurotoxin type F (Clostridium botulinum, UniProt P30996); experiment: High-throughput multiplex microsphere dose response for inhibitors of toxin protease, specifically Botulinum neurotoxin light chain F protease, compounds from Cherry Pick 02.; assay type: functional; conditions: read-out: EC50_MICROM
Vero = experiment: Vero cell toxicity, dose response, cytotoxicity control, plate reader, cherry-pick samples (AID 687020); assay type: functional, cell-based; conditions: Chlorocebus sabaeus

For CCCCCc1cc(=O)oc2c(C(CCN3CCN(c4ccccc4)CC3)c3ccc4c(c3)OCO4)c(OC)cc(OC)c12 (configuration not stated), which EC50 [1] is on record?
The EC50 was 76.1 µM (inactive).

What about the EC50 (Mu-type opioid receptor) of the same compound?
Its EC50 is 92.5 µM (inactive).

For CCc1ccc(NC(=O)N2CCc3ccccc3C2)cc1, which IC50 [2] is on record?
Its IC50 is > 67.6 µM (inactive).

What about the IC50 (cells [3]) of the same compound?
The IC50 was > 67.6 µM (inactive).

Which Ki (fMet-Leu-Phe receptor) does the source give for Cc1nnc(SCc2cnc(-c3ccccc3)o2)nc1O here?
Its Ki is > 66.7 µM (inactive).

And the AC50 [4]?
The AC50 was 0.547 µM (active).

What does the source list for CCOc1ccc(-n2c(=S)sc3c(O)nc(SCC(=O)N4CCC(C)CC4)nc32)cc1?
AC50 [5]: 99 µM (active); IC50 (Aminopeptidase N): 30 µM (active)

With CCN1CCN(Cc2c(O)ccc3c(C)cc(=O)oc23)CC1 as the compound, how does the AC50 [6] read?
Its AC50 is 10 µM (active).

Which results are given for O=C(c1cc2c(=O)n3ccccc3nc2s1)N1CCN(Cc2ccc3c(c2)OCO3)CC1?
EC50 [7]: 0.0693 µM (active); IC50 [8]: > 1.11 µM (active); EC50 [9]: 0.00977 µM (active)

What does the source list for CCOC(=O)C(C)Sc1nc(-c2ccccc2)nc2ccccc12 (configuration not stated)?
IC50 (Major prion protein): 1.83 µM (active); IC50 (cells [10]): > 138 µM (inactive)

For CCC(=O)NCCn1c(C)cc2ccccc21, which IC50 (Protein skinhead-1) is on record?
Its IC50 is > 100 µM (inactive).

What about the EC50 [11] of the same compound?
Its EC50 is > 20 µM (inactive).

For CC(=O)Nc1cccc(OCCCNC(=O)c2ccc(C(C)(C)C)cc2)c1, which AC50 (Vero) is on record?
Its AC50 is 35.3 µM (active).
